Tests used:
EcThsB1, TIR domain [1] = biological target: T1, EcThsB1, TIR domain (Escherichia coli, UniProt A0A0H2V8B5); assay: 1H NMR base-exchange assay; format: biochemical
T1 construct: gene TcpC; EcThsB1^TIR; residues 165 to 307

[2] = biological target: macro domain of EcThsA (EcThsA^Macro; residues 62 to 278), wild type (E. coli CFT073); assay: aggregation assay (SDS-PAGE of soluble and insoluble fractions); protein 47 μM incubated with 1 mM ADPR (or 1 mM IAD) at 4°C for 1 hour; higher-order self-association of the dimers
[3] = biological target: macro domain of EcThsA (EcThsA^Macro; residues 62 to 278), wild type (E. coli CFT073); assay: SEC-MALS; Superdex 200 5/150 Increase equilibrated in gel filtration buffer, 30 μl of EcThsA^Macro at 0.25 ml/min; no ligand; monomer to dimer
[4] = biological target: T2, EcThsA (ThsA TM-macro effector), macro domain (Escherichia coli, UniProt A0A0H2V895, N114A); assay: STD NMR; format: binding
T2 construct: gene c2400; EcThsA^Macro; residues 62 to 278

[5] = biological target: T3, EcThsA (ThsA TM-macro effector), macro domain (Escherichia coli, UniProt A0A0H2V895); assay: crystal structure of soaked complex ([…] Å); STD NMR; format: binding
T3 construct: gene c2400; EcThsA^Macro; residues 62 to 278
T3 sequence (A0A0H2V895 62-278): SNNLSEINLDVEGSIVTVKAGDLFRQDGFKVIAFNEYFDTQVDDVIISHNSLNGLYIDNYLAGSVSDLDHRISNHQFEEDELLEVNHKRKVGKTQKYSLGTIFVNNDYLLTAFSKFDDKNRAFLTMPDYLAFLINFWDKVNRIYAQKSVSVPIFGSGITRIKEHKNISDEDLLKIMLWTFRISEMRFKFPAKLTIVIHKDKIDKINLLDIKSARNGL

[6] = biological target: T4, EcThsA (ThsA TM-macro effector), macro domain (Escherichia coli, UniProt A0A0H2V895, F250A/I219A/K249E/Q207E/R182E/R221E); assay: ITC (~[…]); STD NMR; format: binding
T4 construct: gene c2400; EcThsA^Macro; residues 62 to 278
T4 sequence (A0A0H2V895 62-278 R182E/Q207E/I219A/R221E/K249E/F250A): T3 sequence (A0A0H2V895 62-278)

EcThsB1, TIR domain [7] = biological target: T1, EcThsB1, TIR domain; assay: real-time 1H NMR NADase assay; format: biochemical
[8] = biological target: T5, PcThsA (ThsA TM-macro effector), macro domain (Pseudomonas corrugata, UniProt A0A7Y5Z1U6); assay: crystal structure ([…] Å) with copurified ligand; LC-MS; format: binding
T5 construct: gene HNO91_03675; PcThsA^Macro; residues 63 to 278
T5 sequence (A0A7Y5Z1U6 entry or part of it): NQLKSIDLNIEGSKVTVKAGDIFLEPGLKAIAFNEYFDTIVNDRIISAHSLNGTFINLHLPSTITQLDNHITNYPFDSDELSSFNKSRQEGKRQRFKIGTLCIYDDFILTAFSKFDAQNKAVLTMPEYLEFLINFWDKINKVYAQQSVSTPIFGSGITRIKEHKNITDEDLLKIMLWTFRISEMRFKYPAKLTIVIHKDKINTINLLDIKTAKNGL

[9] = biological target: T3, EcThsA (ThsA TM-macro effector), macro domain; assay: ligand-induced self-aggregation of purified protein (turbidity, SDS-PAGE); format: binding
[10] = biological target: T4, EcThsA (ThsA TM-macro effector), macro domain; assay: ITC; format: binding

T1 sequence (A0A0H2V8B5 165-307 limits assumed): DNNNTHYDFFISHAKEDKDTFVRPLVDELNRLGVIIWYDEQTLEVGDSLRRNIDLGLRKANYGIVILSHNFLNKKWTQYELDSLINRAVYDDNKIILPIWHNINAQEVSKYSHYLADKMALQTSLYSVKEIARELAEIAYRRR

## c1c[nH]cn1 [imidazole]
EcThsB1, TIR domain [1]
  1H NMR base-exchange assay: only imidazole, histamine, and thiazole were observed to undergo base-exchange reactions with NAD^+ in the presence of EcThsB1^TIR

## macro domain of EcThsA (EcThsA^Macro; residues 62 to 278), wild type (domain or fragment)
[2]
  percent of the protein in the insoluble fraction after incubation with ADPR or IAD: > 50%
[3]
  stoichiometry N: 2

## Nc1ncnc2c1ncn2[C@@H]1O[C@H](COP(=O)(O)OP(=O)(O)OC[C@H]2O[C@H](O)[C@H](O)[C@@H]2O)[C@@H](O)[C@H]1O [ADPR]
[4]
  STD NMR: The N114A mutant could still bind ADPR (Fig. 1I), but the STD NMR signal intensities were different
[5]
  crystal structure of soaked complex (2.1 Å); STD NMR: we observed continuous electron density for a molecule corresponding to ADPR in a highly conserved cleft
[6]
  Kd: 4600 ± 500 nM

## NC(=O)c1ccc[n+]([C@@H]2O[C@H](COP(=O)([O-])OP(=O)(O)OC[C@H]3O[C@@H](n4cnc5c(N)ncnc54)[C@H](O)[C@@H]3O)[C@@H](O)[C@H]2O)c1 [NAD^+]
EcThsB1, TIR domain [7]
  real-time 1H NMR NADase assay: could use NAD^+ as a substrate to produce nicotinamide and ADP ribose (ADPR)

## NCCc1c[nH]cn1 [histamine]
EcThsB1, TIR domain [1]
  1H NMR base-exchange assay: EcThsB1^TIR could use the histidine catabolite histamine as a substrate in base-exchange reactions, but not histidine

## Nc1ncnc2c1ncn2[C@@H]1O[C@H](COP(=O)(O)OP(=O)(O)OC[C@H]2O[C@@H](n3ccnc3)[C@H](O)[C@@H]2O)[C@@H](O)[C@H]1O [IAD]
[8]
  crystal structure (1.6 Å) with copurified ligand; LC-MS: revealed that the PcThsA^Macro bound nucleotide has a mass corresponding to IAD
[9]
  ligand-induced self-aggregation of purified protein (turbidity, SDS-PAGE): demonstrating that only ADPR and IAD can trigger self-aggregation of EcThsA^Macro
[10]
  Kd: 167 ± 91 nM
